# Tested on: LPS induced NFkB activity in THP1-Blue™ cells
# Test: Suppression of LPS induced NFkB in human monocyte THP-1 reporter cells (THP1-BLUE NFkB, SEAP)
# Type: cell-based
# Settings: IKK 16 at 2 μM; LPS 100 ng/mL 18 hours
structure (smiles),measurement,value
O=C(c1ccc(Nc2nccc(-c3cc4ccccc4s3)n2)cc1)N1CCC(N2CCCC2)CC1 [IKK 16],Suppression of LPS induced NFkB activity in THP1-Blue ™ cells (control for suppression),−80%

# — patent US20230256033A1, “PHYSIOLOGICALLY ACCEPTABLE COMPOSITIONS CONTAINING MICROORGANISMS OR MICROBIAL PRODUCTS” (FLAGSHIP PIONEERING INNOVATIONS VI, LLC, priority 2020, published 2023)
